Several values for one entry are separate records, joined by “and”; a condition that tells them apart may be missing. Identical values can stand only once. Entries after “also recorded” stand apart in the source; their conditions may differ.
Key:
[1] = reaction with amino-protected amino acids (LC-MS); conditions: room temperature
Method: Vinyl sulfones are reactive species that can alkylate substrates as a result of a nucleophilic attack on the distal carbon of the vinyl group. To evaluate the potential of Cpd 161 (vinyl sulfone) to react with proteins, we tested its reaction with nucleophilic amino acid side chains groups. […] To test whether Cpd 161 could react covalently with the PBD, we incubated them together and examined the molecular mass of the protein by SDS-PAGE (Fig. 7). […] Consistent with this idea, the extent of the shift depended on the concentration of Cpd 161 used (Fig. 7B) and also on the incubation time (Fig. 7C).
To a stirred solution of electrophile (0.02 mmol) and amino acid (1- 1.5eq) in DMF (0.3 ml) were added a few drops of a diluted aqueous solution of sodium bicarbonate. The reaction was monitored using an Agilent 6120 Quadrupole LC/MS system (Agilent Technologies). In all cases, the molecular ion of the product was observed.

[2] = biological target: T1, His-PBD326-603 (Homo sapiens, UniProt P53350); test: alkylation sites on the PBD by LC-MS/MS
Method: Proteins were precipitated using acetone and resuspended in 100 μl. Sample reduction was performed by adding 50 μl of 5 mM TCEP in 50 mM ammonium bicarbonate. Samples were then added 50 μl of chloroacetamide 50 mM with ammonium bicarbonate 50 mM to protect exposed cysteine residues. One microgram of trypsin was added and the digestion was performed for 8 h at 37 °C. […] Each full MS spectrum acquired with a 70,000 resolution was followed by 12 MS/MS spectra, where the 12 most abundant multiply charged ions were selected for MS/MS sequencing. Peptides were identified using Peaks 8.0 (Bioinformatics Solution Inc.) and peptide sequences were blasted against the Human Uniprot database. Tolerance was set at 10 ppm for precursor and 0.01 Da for fragment ions during data processing. For the post-translational modification of proteins, occurrence of carbamidomethylation (C), oxidation (M), deamidation (NQ) was considered as well as addition of TQ (C, K), Poloxin (K, C, H), and vinyl sulfone (C, H, K) when needed.

[3] = biological target: GST-PBD367-603 of Plk1 (Homo sapiens, UniProt P53350); test: fluorescence polarization assay PBD-phosphopeptide
[4] = biological target: T1, His-PBD326-603; test: covalent reaction with the PBD by SDS-PAGE; set-up: His-PBD326-603 was expressed in E.coli BL21; made in house; host or cells: E. coli BL21; conditions: 2.5 mM, 3-4 h
Method: Vinyl sulfones are reactive species that can alkylate substrates as a result of a nucleophilic attack on the distal carbon of the vinyl group.
Membranes were blocked with TBS-Tween 0.1% containing 5% of dry milk powder, then incubated with anti-Plk1 (F-8; Santa Cruz Biotechnologies Inc.) or with a 6x-His epitope tag antibody (Invitrogen; gift from Gregory Emery). HRP-conjugated goat anti-mouse IgG (Jackson ImmunoResearch Laboratories inc.) was used and TBS-Tween 0.1% was used for the washes before and after the secondary antibody. […] Gels were imaged using a ChemiDoc MP system (BioRad).

[5] = system: HeLa cells; test: mitotic defect phenotypes by immunofluorescence; type: cell-based; conditions: 10 μM, 7 h
Method: HeLa cells were treated with these compounds along with the known PBD inhibitors PPG, TQ, Poloxin and the KD inhibitor BI2536 as controls, and then stained against α-Tubulin, pericentrin (a centrosome marker) and DNA (Fig. 2D). In all cases, there was a marked increase in the frequency of disorganized spindles compared with DMSO-treated control cells. This is expected as Plk1 plays multiple roles in spindle assembly and maintenance. […] Cpd 69, an analog of compound 122, induced a similar phenotype at lower concentrations (data not shown). This phenotype was not seen after treatment with BI2536.
For the mitotic defect phenotypes, 25 200 HeLa cells were plated on poly-L-lysine coated round cover slips in 24-well plates. The day after, cells were treated for 7 hours, and then washed with PHEM buffer at 37 °C before fixation in PHEM buffer containing 4% formaldehyde for 20 minutes at 37 °C. Cells were washed three times with TBS-tween 0.1% and plate was kept overnight at 4 °C. Next steps were followed as previously described except that coverslips were incubated in a dark wet chamber with antibodies. Anti-pericentrin (diluted 1:1000; Abcam), anti-α-tubulin DM1A (diluted 1:500; Sigma-Aldrich), Alexa Fluor 488 anti-rabbit and Texas-Red anti-mouse (diluted 1:200; Invitrogen) were used. Coverslips were mounted on slide using Vectashield media containing DAPI (Vector Laboratories).
Images shown in Fig. 2D were acquired on an AxioImager microscope (Carl Zeiss) with a 100x oil objective (NA 1.4 DICIII) and an AxioCam HRM camera (Carl Zeiss) using AxioVision software (Carl Zeiss).

[6] = biological target: PBD of Plk1 (Homo sapiens, UniProt P53350); test: fluorescence polarization assay PBD-Map peptide; type: binding
Method: The FP buffer was composed of 10 mM Tris pH 8.0, 50 mM NaCl, 1 mM EDTA, 20% glycerol and 0.1% NP-40. The peptide (final concentration 10 nM) was always added to the wells of non-binding, black, 384-well plates, 1 hour after the addition of the protein with the buffer (+/− treatment, 10% DMSO). […] EC65s were used to perform the competitive assays with the non-labeled peptides and with the inhibitors. FP Inhibition was calculated with the formula: 100 − [((mPsample − mPfree peptide)\(mPDMSO − mPfree peptide)) × 100]. […] (Map peptide), and corresponding non-labeled peptides are identical but without FITC in N-terminal. […] Inhibition curves were fitted with GraphPad (Prism software).

[7] = system: PBD; set-up: method as in PMID 19033445; conditions: cited from earlier work
[8] = system: mitosis; conditions: cited from earlier work
[9] = biological target: Plk1-Map interaction (Homo sapiens, UniProt P53350); test: LUMIER co-immunoprecipitation assay Plk1-Map
Chain of Plk1-Map interaction (P53350 whole entry): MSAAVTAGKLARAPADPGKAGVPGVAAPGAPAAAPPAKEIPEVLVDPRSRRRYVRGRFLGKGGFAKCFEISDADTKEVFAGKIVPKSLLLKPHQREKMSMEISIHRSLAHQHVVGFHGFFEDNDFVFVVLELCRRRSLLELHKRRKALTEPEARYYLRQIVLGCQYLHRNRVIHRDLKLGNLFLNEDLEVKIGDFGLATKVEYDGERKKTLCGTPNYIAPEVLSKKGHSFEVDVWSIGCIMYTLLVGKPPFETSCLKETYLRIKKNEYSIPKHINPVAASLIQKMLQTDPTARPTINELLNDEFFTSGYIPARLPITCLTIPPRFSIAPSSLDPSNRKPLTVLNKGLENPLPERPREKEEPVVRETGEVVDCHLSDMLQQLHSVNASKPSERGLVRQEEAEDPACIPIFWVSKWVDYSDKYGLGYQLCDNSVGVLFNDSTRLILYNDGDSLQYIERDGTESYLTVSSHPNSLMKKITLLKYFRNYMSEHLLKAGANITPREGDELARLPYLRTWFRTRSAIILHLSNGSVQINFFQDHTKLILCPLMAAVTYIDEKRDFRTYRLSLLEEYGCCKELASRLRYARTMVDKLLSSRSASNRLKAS

Chain of GST-PBD367-603 of Plk1 (P53350 367-603): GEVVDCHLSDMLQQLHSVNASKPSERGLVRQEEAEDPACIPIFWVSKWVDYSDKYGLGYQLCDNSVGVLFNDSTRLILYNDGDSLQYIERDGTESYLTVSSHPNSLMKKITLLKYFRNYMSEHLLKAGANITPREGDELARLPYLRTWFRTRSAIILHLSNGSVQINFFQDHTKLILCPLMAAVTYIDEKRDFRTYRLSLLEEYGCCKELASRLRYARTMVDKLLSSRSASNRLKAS
T1 sequence (P53350 326-603): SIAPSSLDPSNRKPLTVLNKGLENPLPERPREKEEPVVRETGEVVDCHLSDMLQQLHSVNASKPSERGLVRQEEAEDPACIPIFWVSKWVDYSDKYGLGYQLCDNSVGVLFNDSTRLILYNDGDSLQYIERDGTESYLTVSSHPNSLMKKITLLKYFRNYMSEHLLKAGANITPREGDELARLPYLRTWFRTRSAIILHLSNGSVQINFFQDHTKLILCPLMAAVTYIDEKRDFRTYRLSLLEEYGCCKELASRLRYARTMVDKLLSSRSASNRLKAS
Chain of PBD of Plk1 (P53350 367-603 limits assumed): as the sequence (P53350 367-603) above

Row | alkylated residues very near the phosphopeptide binding site [2] | residues of the PBD found alkylated ([2]; 2.5 mM TQ, 2.5 mM Cpd 161 or 250 μM Poloxin, 3 hours) | IC50 ([3]; FP - IC50 (μM), Table S3) [µM] | activity in the FP assay ([3]; SAR) | SMILES | time to completion of reaction with amino-protected cysteine [1] | time to completion of reaction with amino-protected lysine [1] | mobility shift of the PBD in SDS-PAGE [4] | 2 > pericentrin foci (percentage of cells) [5] [%] | Disorganized spindles (percentage of cells) [5] [%] | disruption of the PBD-Map interaction in FP [6] | concentrations active in vitro [7] | concentrations impacting mitosis [8] | Average-Beads (mean luminescence) ([9]; 10-25 μM, 2 h) | Relative Luminescence Unit ([9]; mean divided by maximum mean of the compounds) | Luminescence on beads, duplicate wells ([9]; raw data, 10-25 μM, 2 h) | IC50 ([3]; IC50 in FP, GST-PBD367-603 38 nM, 1 h pre-incubation, FITC-phosphopeptide 10 nM, Fig. 4C) [µM]
1 | His489; also recorded: Lys492 | cysteines, lysines and histidines | 8.3 ± 2.6 | showed the same activity as Cpd 16 | C=CS(=O)(=O)c1cc(C(F)(F)F)cc(C)n1 [Cpd 161, 2-methyl-4-(trifluoromethyl)-6-(vinylsulfonyl) pyridine] | approximately 10 minutes | approximately 10 minutes | appeared higher in the gel, a few kDa above the protein treated with DMSO alone | – | – | – | – | – | – | – | – | –
2 | – | – | – | – | O=c1c(O)cccc2cc(O)c(O)c(O)c12 [PPG, purpurogallin, reference compound] | – | – | – | 7 ± 4 | 41 ± 6 | disrupted the PBD-Map interaction | low micromolar concentrations | high micromolar concentrations | 301,042 | 0.351 | 290,044 and 312,040 | 126
